Values of other authors as cited in US20050009744A1, “Treatment of congestive heart failure” (priority 2001, published 2005).

Conditions: Lysko et al, J Cardiovasc Pharmacol 2000

COc1ccccc1OCCNCC(O)COc1cccc2[nH]c3ccccc3c12 (stereo not shown) [Carvedilol, carvedilol]
antioxidant activity: far greater antioxidant activity than e.g. metoprolol
